Assay: Stability investigation of the crystalline forms (HPLC purity, samples placed open and flat)
Assay type: physicochemical
Method: The crystalline forms of the compound of formula I obtained from each example and each comparative preparation example were analyzed by HPLC.
Instrument and equipment: Agilent-1100 High Performance Liquid Chromatograph;
Chromatographic conditions and system suitability test: octadecylsilane-bonded silica gel was used as a filler; water (pH adjusted to 3.8 with phosphoric acid):acetonitrile (45:55) was used as a mobile phase; detection wavelength was 220 nm; theoretical tower plate number should not be less than 2000; the resolution should not be less than 2.0; and the resolution from other adjacent impurity peaks should meet the requirements.
Test solution: an appropriate amount of the compound obtained from each example was accurately weighed, dissolved in anhydrous ethanol, and diluted quantitatively to prepare a solution containing about 1 mg compound per 1 ml solution as the test solution.
Reference solution: 1 ml of reference solution of the compound of formula I was accurately measured, and placed into a 100 ml volumetric flask, diluted with anhydrous ethanol to the scale, and shaken well to obtain the reference solution. Reference substance: calibrated standard substance of the compound of formula I provided by Chengdu Shibeikang Biomedical Technology Co., Ltd.
Determination method: according to General Chapter 0512 High Performance Liquid Chromatography in Chinese Pharmacopoeia (2015 Edition) Volume IV, 10 μl of the test solution and 10 μl of the reference solution were accurately measured respectively, and injected into the liquid chromatograph to record chromatograms.
Samples of the crystalline form B from each Example and the crystalline form from each comparative preparation example were placed in an open and flat way to investigate 5-day stability and 10-day stability of the samples under the conditions of light (4500 Lux), heating at 40° C. and 60° C. and high humidity of 75% and 90%, respectively. The detection was carried out according to the determination method in Test 1, and HPLC purity detection results were shown in the table below.

HPLC purity Day 0 (%) (heating at 40° C.) | HPLC purity Day 5 (%) (heating at 40° C.) | HPLC purity Day 10 (%) (heating at 40° C.) | HPLC purity Day 0 (%) (heating at 60° C.) | HPLC purity Day 5 (%) (heating at 60° C.) | HPLC purity Day 10 (%) (heating at 60° C.) | HPLC purity Day 0 (%) (high humidity of 90%) | HPLC purity Day 5 (%) (high humidity of 90%) | HPLC purity Day 10 (%) (high humidity of 90%) | HPLC purity Day 0 (%) (light (4500 Lux)) | HPLC purity Day 5 (%) (light (4500 Lux)) | HPLC purity Day 10 (%) (light (4500 Lux)) | Compound
99.87 | 99.87 | 99.87 | 99.87 | 99.85 | 99.85 | 99.87 | 99.87 | 99.86 | 99.87 | 99.87 | 99.86 | COC(=O)[C@H](c1ccccc1Cl)N1CC[C@@H]2SC(=O)C=C2C1 [Example 5, methyl (S)-2-(2-chlorophenyl)-2-((S)-2-oxo-2,6,7,7a-tetrahydrothieno[3,2-c]pyridin-5(4H)-yl)acetate]
99.91 | 99.91 | 99.90 | 99.91 | 99.89 | 99.88 | 99.91 | 99.91 | 99.90 | 99.91 | 99.91 | 99.90 | COC(=O)[C@H](c1ccccc1Cl)N1CC[C@@H]2SC(=O)C=C2C1 [Example 6, methyl (S)-2-(2-chlorophenyl)-2-((S)-2-oxo-2,6,7,7a-tetrahydrothieno[3,2-c]pyridin-5(4H)-yl)acetate]
99.88 | 99.88 | 99.88 | 99.88 | 99.85 | 99.84 | 99.88 | 99.88 | 99.87 | 99.88 | 99.88 | 99.87 | COC(=O)[C@H](c1ccccc1Cl)N1CC[C@@H]2SC(=O)C=C2C1 [Example 7, methyl (S)-2-(2-chlorophenyl)-2-((S)-2-oxo-2,6,7,7a-tetrahydrothieno[3,2-c]pyridin-5(4H)-yl)acetate]

Continued, compound first:

Compound | HPLC purity Day 0 (%) (heating at 40° C.) | HPLC purity Day 5 (%) (heating at 40° C.) | HPLC purity Day 10 (%) (heating at 40° C.) | HPLC purity Day 0 (%) (heating at 60° C.) | HPLC purity Day 5 (%) (heating at 60° C.) | HPLC purity Day 10 (%) (heating at 60° C.) | HPLC purity Day 0 (%) (high humidity of 90%) | HPLC purity Day 5 (%) (high humidity of 90%) | HPLC purity Day 10 (%) (high humidity of 90%) | HPLC purity Day 0 (%) (light (4500 Lux)) | HPLC purity Day 5 (%) (light (4500 Lux)) | HPLC purity Day 10 (%) (light (4500 Lux))
COC(=O)[C@H](c1ccccc1Cl)N1CC[C@@H]2SC(=O)C=C2C1 (racemic) [Comparative preparation example 1, methyl (S)-2-(2-chlorophenyl)-2-((S)-2-oxo-2,6,7,7a-tetrahydrothieno[3,2-c]pyridin-5(4H)-yl)acetate, reference compound] | 96.89 | 96.31 | 95.35 | 96.89 | 95.45 | 94.37 | 96.89 | 96.75 | 96.69 | 96.89 | 96.80 | 96.75
COC(=O)[C@H](c1ccccc1Cl)N1CC[C@@H]2SC(=O)C=C2C1 (racemic) [Comparative preparation example 2, methyl (S)-2-(2-chlorophenyl)-2-((S)-2-oxo-2,6,7,7a-tetrahydrothieno[3,2-c]pyridin-5(4H)-yl)acetate, reference compound] | 96.43 | 96.01 | 94.78 | 96.43 | 95.23 | 93.89 | 96.43 | 96.33 | 96.23 | 96.43 | 96.35 | 96.27
COC(=O)[C@H](c1ccccc1Cl)N1CC[C@@H]2SC(=O)C=C2C1 (racemic) [Comparative preparation example 3, methyl (S)-2-(2-chlorophenyl)-2-((S)-2-oxo-2,6,7,7a-tetrahydrothieno[3,2-c]pyridin-5(4H)-yl)acetate, reference compound] | 97.73 | 97.22 | 96.13 | 97.73 | 96.60 | 95.23 | 97.73 | 97.66 | 97.58 | 97.73 | 97.70 | 97.65
COC(=O)[C@H](c1ccccc1Cl)N1CC[C@@H]2SC(=O)C=C2C1 [Example 1, methyl (S)-2-(2-chlorophenyl)-2-((S)-2-oxo-2,6,7,7a-tetrahydrothieno[3,2-c]pyridin-5(4H)-yl)acetate] | 99.82 | 99.82 | 99.81 | 99.82 | 99.79 | 99.77 | 99.82 | 99.82 | 99.81 | 99.82 | 99.82 | 99.82
COC(=O)[C@H](c1ccccc1Cl)N1CC[C@@H]2SC(=O)C=C2C1 [Example 2, methyl (S)-2-(2-chlorophenyl)-2-((S)-2-oxo-2,6,7,7a-tetrahydrothieno[3,2-c]pyridin-5(4H)-yl)acetate] | 99.92 | 99.92 | 99.91 | 99.92 | 99.87 | 99.84 | 99.92 | 99.92 | 99.91 | 99.92 | 99.92 | 99.92
COC(=O)[C@H](c1ccccc1Cl)N1CC[C@@H]2SC(=O)C=C2C1 [Example 3, methyl (S)-2-(2-chlorophenyl)-2-((S)-2-oxo-2,6,7,7a-tetrahydrothieno[3,2-c]pyridin-5(4H)-yl)acetate] | 99.94 | 99.93 | 99.93 | 99.94 | 99.90 | 99.88 | 99.94 | 99.94 | 99.94 | 99.94 | 99.94 | 99.94
COC(=O)[C@H](c1ccccc1Cl)N1CC[C@@H]2SC(=O)C=C2C1 [Example 4, methyl (S)-2-(2-chlorophenyl)-2-((S)-2-oxo-2,6,7,7a-tetrahydrothieno[3,2-c]pyridin-5(4H)-yl)acetate] | 99.89 | 99.89 | 99.88 | 99.89 | 99.87 | 99.86 | 99.89 | 99.89 | 99.89 | 99.89 | 99.89 | 99.89

Reference: patent US12371439B2, “Crystalline form B of tetrahydrothienopyridine compound, preparation method, composition and application thereof” (Chengdu Shibeikang Biomedical Technology Co. Ltd., priority 2019, dated 2025)
